Assay results taken from patent US20240368151A1, “NOVEL ERGOLINES AND METHODS OF TREATING MOOD DISORDERS” (priority 2021, published 2024).

How the values were obtained:
[1] = Metabolic stability in mouse liver microsomes (MLM); type: in vitro ADME; details: mouse, pooled mouse liver microsomes, pH 7.4, MLM (CD-1), NADPH
Description: MLM Stability Pooled MLM from CD-1 mice (BIOIVT M00501) were used.

[2] = Metabolic stability in rat liver microsomes (RLM); type: in vitro ADME; details: both sexes, rat, pooled rat liver microsomes, pH 7.4, NADPH
human 5-HT2C receptor = human 5-HT2C receptor (Homo sapiens (Human), UniProt P28335); type: cell-based; details: Ca^2+ flux
Chain of human 5-HT2C receptor (P28335 33-458 limits assumed): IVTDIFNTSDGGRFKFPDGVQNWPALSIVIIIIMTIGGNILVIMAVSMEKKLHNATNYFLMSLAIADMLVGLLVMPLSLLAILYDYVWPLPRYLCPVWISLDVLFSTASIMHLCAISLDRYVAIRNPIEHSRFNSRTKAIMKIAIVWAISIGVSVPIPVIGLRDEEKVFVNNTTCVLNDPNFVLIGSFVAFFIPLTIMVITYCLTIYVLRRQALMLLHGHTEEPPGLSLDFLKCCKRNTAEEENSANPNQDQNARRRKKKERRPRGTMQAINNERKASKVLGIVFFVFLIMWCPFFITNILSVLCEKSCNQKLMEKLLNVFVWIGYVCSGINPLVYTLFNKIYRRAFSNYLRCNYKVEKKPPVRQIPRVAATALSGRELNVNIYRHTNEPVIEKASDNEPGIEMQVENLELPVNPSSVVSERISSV

5-HT2B receptor = 5-HT2B receptor (Homo sapiens (Human), UniProt P41595); assay: FLIPR Ca^2+ flux agonist assay at 5-HT2B; type: cell-based; details: HEK293
Chain of 5-HT2B receptor (P41595 whole entry, looked up): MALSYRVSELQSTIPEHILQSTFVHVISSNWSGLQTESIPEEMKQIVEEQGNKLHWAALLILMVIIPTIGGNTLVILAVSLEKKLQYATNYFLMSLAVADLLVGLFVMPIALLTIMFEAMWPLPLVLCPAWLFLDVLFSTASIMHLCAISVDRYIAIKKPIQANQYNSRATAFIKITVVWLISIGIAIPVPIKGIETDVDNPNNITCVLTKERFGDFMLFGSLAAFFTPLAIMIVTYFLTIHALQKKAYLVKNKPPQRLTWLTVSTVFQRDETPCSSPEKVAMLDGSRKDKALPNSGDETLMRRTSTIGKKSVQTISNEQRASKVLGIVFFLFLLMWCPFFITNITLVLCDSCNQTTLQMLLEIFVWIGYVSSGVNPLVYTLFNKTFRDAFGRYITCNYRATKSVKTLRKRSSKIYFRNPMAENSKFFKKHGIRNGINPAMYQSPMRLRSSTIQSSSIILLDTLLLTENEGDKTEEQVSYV
Method: (§1) Functional Assays at 5-HT2A, 5-HT2B, and 5-HT1A. Agonist activity at 5-HT2A, 5-HT2B, and 5-HT1A receptors was determined using a FLIPR Ca^2+ flux assay at WuXi AppTec (Hong Kong) Limited according to their standard protocols. Briefly, stably transfected cells expressing the receptor of interest (HEK293 for 5-HT2A and 5-HT2B; CHO cells for 5-HT1A) were grown and plated in a 384 well plate and incubated at 37° C. and 5% CO2 overnight. A solution of 250 mM probenecid in 1 mL FLIPR assay buffer was prepared fresh. This was combined with a fluorescent dye (Fluo-4 Direct™) to make a final assay concentration of 2.5 mM. […] The fluorescent dye was then added to the assay plate along with assay buffer to a final volume of 40 μL. The cell plate was incubated for 50 min at 37° C. and 5% CO2 and placed into the FLIPR Tetra along with the compound plate. 10p L of references and compounds were then transferred from the compound plate into the cell plate and the fluorescent signal was read.

5-HT1A receptor = 5-HT1A receptor (Homo sapiens (Human), UniProt P08908); assay: FLIPR Ca^2+ flux agonist assay at 5-HT1A; type: cell-based; details: CHO cells
Method: as §1

5-HT2A receptor [3] = biological target: T1, 5-HT2A receptor (Homo sapiens (Human), UniProt P28223); type: cell-based; details: beta-arrestin recruitment
Method: The degree of arrestin bias varied substantially across the other compounds tested as well.
Arrestin Functional Assay at 5-HT2A. Recruitment of beta-arrestin was determined using a PathHunter assay at Eurofins DiscoverX (Fremont, CA) according to their standard protocols. PathHunter GPCR beta-arrestin assays take advantage of DiscoverX's proprietary Enzyme Fragment Complementation technology. The GPCR is fused in frame with a small enzyme donor fragment ProLink™ (PK) and co-expressed in cells stably expressing a fusion protein of beta-arrestin and the larger, N-terminal deletion mutant of beta-galactosidase. Activation of the GPCR (5-HT2A receptor in this case) stimulates binding of beta-arrestin to the PK-tagged GPCR and forces complementation of the two enzyme fragments, resulting in the formation of an active beta-galactosidase enzyme. This interaction leads to an increase in enzyme activity that can be measured using chemiluminescent PathHunter Detection Reagents. Briefly, PathHunter cells expressing 5-HT2A receptors were seeded in a volume of 20 μL into 384-well plates and incubated at 37° C. for the appropriate time prior to testing. […] Plates were then imaged on a microplate reader and the agonist activity was calculated using the following formula: % Activity=100%×(mean RLU of test sample−mean RLU of vehicle control)/(mean MAX control ligand−mean RLU of vehicle control), where RLU=relative light units.

[4] = Metabolic stability in human liver microsomes (HLM); type: in vitro ADME; details: both sexes, human, pooled human liver microsomes, pH 7.4, NADPH
Description: HLM Stability. Pooled HLM from adult male and female donors (Corning 452117) were used.

5-HT2A receptor [5] = biological target: T1, 5-HT2A receptor; type: cell-based; details: Ca^2+ flux, HEK293
Method: as §1

C57BL/6 mice = assay: Mouse head twitch response (HTR) assay; type: in vivo; details: mouse HTR, SC
Method: Agonists of the 5-HT2A receptor are well known to induce this effect in rodents and the potency of this HTR is correlated with hallucinogenic potency in humans.
Animals. Adult male C57BL/6 mice, aged 6-8 weeks (body weight 20-25 g) were used in this experiment. Animals were housed under controlled temperatures and 12-hour light/dark cycles (lights on between 07:00-19:00 h), with ad libitum food and water. This study was carried out in strict accordance with the requirements of the Committee for the Purpose of Control and Supervision of Experiments on Animals (CPCSEA), India. All efforts were made to minimize suffering.
Drugs and Drug Administration. Compound 1 was synthesized as described above. It was administered subcutaneously (SC) dissolved in saline vehicle at a volume of 10 mL/kg. Five doses were tested, with n=6 animals/group. Doses were calculated on the basis of the freebase.
Procedure. Mice were administered one dose of the drug and immediately placed into a small open field for behavioral observation. Animals were observed continuously for 20 mins and the number of head twitches (HTs) were counted by an observer blind to the treatment condition.
Statistical Analysis. The data points shown are the mean±standard error of the mean (SEM). Analysis was performed using GraphPad Prism 6. Curves were fit using a non-linear gaussian distribution to calculate ED50 and Emax values.
Additional disclosed compounds were tested in the mouse head twitch response (HTR) assay according to the procedure described in Example 34. […] Lastly, compounds with much larger benzyl and phenethyl substituents on the amine nitrogen (e.g., 10 and 11) were low efficacy in this assay, consistent with their lower maximal efficacy in the arrestin functional assay (see Example 32).

Question: For `C=CCN1C[C@@H](C(=O)N[C@H](C)CC)C=C2c3cccc4[nH]cc(c34)C[C@H]21` [Compound 8a, (6aR,9S)-7-allyl-N-((R)-sec-butyl)-4,6,6a,7,8,9-hexahydroindolo[4,3-fg]quinoline-9-carboxamide], which half-life at 1 μM [1] is on record?
Answer: The half-life at 1 μM was 0.8 min.

Question: And the half-life at 1 μM [2]?
Answer: Its half-life at 1 μM is 1.7 min.

Question: What about the “5-HT2C % Act @ Max Dose” value (human 5-HT2C receptor) of the same molecule?
Answer: Its value is 13.314%.

Question: What about the “5-HT2B % Act @ Max Dose” value (5-HT2B receptor) of the same molecule?
Answer: The value was 35.71%.

Question: What about the “5-HT1A % Act @ Max Dose” value (5-HT1A receptor) of the same molecule?
Answer: The value was 90.34%.

Question: And the “5-HT2A Arrestin % Act @ Max Dose” value (5-HT2A receptor [3])?
Answer: The value was 81.117%.

Question: And the half-life at 1 μM [4]?
Answer: The half-life at 1 μM was 3.4 min.

Question: What about the “5-HT2A % Act @ Max Dose” value (5-HT2A receptor [5]) of the same molecule?
Answer: The value was 87.45%.

Question: Which half-life at 1 μM [1] does the source give for `CC[C@@H](C)NC(=O)[C@H]1C=C2c3cccc4[nH]cc(c34)C[C@H]2N(CC)C1` [Compound 5a, (6aR,9S)-N-((R)-sec-butyl)-7-ethyl-4,6,6a,7,8,9-hexahydroindolo[4,3-fg]quinoline-9-carboxamide] here?
Answer: The half-life at 1 μM was 1.7 min.

Question: What about the half-life at 1 μM [2] of the same molecule?
Answer: The half-life at 1 μM was 3.1 min.

Question: And the “5-HT2C % Act @ Max Dose” value (human 5-HT2C receptor)?
Answer: Its value is 99.4405%.

Question: And the “5-HT2B % Act @ Max Dose” value (5-HT2B receptor)?
Answer: The value was 43.7%.

Question: And the “5-HT1A % Act @ Max Dose” value (5-HT1A receptor)?
Answer: The value was 111.65%.

Question: What about the “5-HT2A Arrestin % Act @ Max Dose” value (5-HT2A receptor [3]) of the same molecule?
Answer: The value was 62.444%.

Question: And the half-life at 1 μM [4]?
Answer: Its half-life at 1 μM is 5.5 min.

Question: What about the “5-HT2A % Act @ Max Dose” value (5-HT2A receptor [5]) of the same molecule?
Answer: Its value is 89.59%.

Question: Which results are given for `CCCN1C[C@@H](C(=O)N[C@H](C)CC)C=C2c3cccc4[nH]cc(c34)C[C@H]21` [Compound 3a, (6aR,9S)-N-((R)-sec-butyl)-7-propyl-4,6,6a,7,8,9-hexahydroindolo[4,3-fg]quinoline-9-carboxamide]?
Answer: half-life at 1 μM [1]: 0.6 min; half-life at 1 μM [2]: 1.4 min; 5-HT2C % Act @ Max Dose (human 5-HT2C receptor): 108.705%; 5-HT2B % Act @ Max Dose (5-HT2B receptor): 52.81%; 5-HT1A % Act @ Max Dose (5-HT1A receptor): 108.14%; 5-HT2A Arrestin % Act @ Max Dose (5-HT2A receptor [3]): 112.91%; half-life at 1 μM [4]: 2.2 min; 5-HT2A % Act @ Max Dose (5-HT2A receptor [5]): 92.04%

Question: Which results are given for `CCC(CC)NC(=O)[C@H]1C=C2c3cccc4[nH]cc(c34)C[C@H]2N(C)C1` [Int14a, (6aR,9S)-7-methyl-N-(pentan-3-yl)-4,6,6a,7,8,9-hexahydroindolo[4,3-fg]quinoline-9-carboxamide]?
Answer: half-life at 1 μM [1]: 1.7 min; half-life at 1 μM [2]: 1.8 min; 5-HT2C % Act @ Max Dose (human 5-HT2C receptor): 119.28%; 5-HT2B % Act @ Max Dose (5-HT2B receptor): 1.86%; 5-HT1A % Act @ Max Dose (5-HT1A receptor): 70.27%; 5-HT2A Arrestin % Act @ Max Dose (5-HT2A receptor [3]): 44.321%; half-life at 1 μM [4]: 3.35 min; 5-HT2A % Act @ Max Dose (5-HT2A receptor [5]): 32.98%

Question: With `C[C@H]1C[C@H](C)N1C(=O)[C@@H]1C=C2c3cccc4[nH]cc(c34)C[C@H]2N(C)C1` [Int11, ((2S,4S)-2,4-dimethylazetidin-1-yl)((6aR, 9R)-7-methyl-4,6,6a,7,8,9-hexahydroindolo[4,3-fg]quinolin-9-yl)methanone] as the molecule, how does the half-life at 1 μM [1] read?
Answer: The half-life at 1 μM was 13.9 min.

Question: What about the half-life at 1 μM [2] of the same molecule?
Answer: The half-life at 1 μM was 54.9 min.

Question: What about the “5-HT2B % Act @ Max Dose” value (5-HT2B receptor) of the same molecule?
Answer: Its value is 38.15%.

Question: What about the “5-HT1A % Act @ Max Dose” value (5-HT1A receptor) of the same molecule?
Answer: The value was 89.9%.

Question: And the “5-HT2A Arrestin % Act @ Max Dose” value (5-HT2A receptor [3])?
Answer: Its value is 49.269%.

Question: And the “agonist type in the 5-HT2A arrestin recruitment assay, in words” value (5-HT2A receptor [3])?
Answer: The value was “partial agonists”.

Question: And the half-life at 1 μM [4]?
Answer: The half-life at 1 μM was 25.7 min.

Question: And the “Most Efficacious Dose” value (C57BL/6 mice)?
Answer: Its value is “(0.1 mg/kg)”.

Question: What about the “# HTR at Most Efficacious Dose” value (C57BL/6 mice; 20 min observation) of the same molecule?
Answer: The value was 10.667.

Question: And the “Emax (95% CI)” value (C57BL/6 mice; 20 min observation, curve fit)?
Answer: The value was 10.93.

Question: What about the “5-HT2A % Act @ Max Dose” value (5-HT2A receptor [5]) of the same molecule?
Answer: The value was 110.03%.

Question: With `CC[C@@H](C)NC(=O)[C@H]1C=C2c3cccc4[nH]cc(c34)C[C@H]2N(C)C1` [Int8a, (6aR,9S)-N-((R)-sec-butyl)-7-methyl-4,6,6a,7,8,9-hexahydroindolo[4,3-fg]quinoline-9-carboxamide] as the molecule, how does the half-life at 1 μM [1] read?
Answer: Its half-life at 1 μM is 1.6 min.

Question: What about the half-life at 1 μM [2] of the same molecule?
Answer: The half-life at 1 μM was 3.5 min.

Question: What about the “5-HT2C % Act @ Max Dose” value (human 5-HT2C receptor) of the same molecule?
Answer: The value was 93.73%.

Question: What about the “5-HT2B % Act @ Max Dose” value (5-HT2B receptor) of the same molecule?
Answer: The value was 6.87%.

Question: What about the “5-HT1A % Act @ Max Dose” value (5-HT1A receptor) of the same molecule?
Answer: Its value is 103.65%.

Question: And the “5-HT2A Arrestin % Act @ Max Dose” value (5-HT2A receptor [3])?
Answer: Its value is 35.52%.

Question: And the half-life at 1 μM [4]?
Answer: Its half-life at 1 μM is 11.1 min.

Question: And the “5-HT2A % Act @ Max Dose” value (5-HT2A receptor [5])?
Answer: The value was 72.6%.
